Experiments:
CHOP = assay: CHO-CHOP-luciferase reporter assay; assay type: cell-based, Chinese hamster; settings: for UPR CHOP AC50 ± SEM: CHO-CHOP-luciferase cells, averaged from n ≥ 4 experiments
[1] = tested on: Chop knockout murine embryonic fibroblast (MEF) cells; assay: MEF proliferation assay, Chop knockout; assay type: cell-based, mouse; settings: concentrations up to 20 μM, 24 h, Figure S1
HN30 = assay: OSCC proliferation assay HN30; assay type: cell-based; settings: Homo sapiens, 24 h, read-out: potency, dose–response proliferation assay
A253 = assay: OSCC proliferation assay A253; assay type: cell-based, human; settings: A253, 24 h
H460/T800 = assay: OSCC proliferation assay H460/T800; assay type: cell-based, human; settings: H460/T800, 24 h
HN6 = assay: OSCC proliferation assay HN6; assay type: cell-based, human; settings: HN6, 24 h
[2] = tested on: human tumor cell line panel (NCI-60); assay: NCI-60 human tumor cell line panel; assay type: cell-based; settings: colon, melanoma, and renal cancer cell lines
[3] = Chemical stability toward thiol nucleophiles; assay type: physicochemical; settings: 10 μM in PBS pH 7.4, 1% DMSO, 8 h, room temperature
Aqueous solubility = assay type: physicochemical; settings: through a biologically relevant pH range
PAMPA permeability = assay type: in vitro ADME; settings: donor pH 5.0, 6.2, and 7.4
[4] = Hepatic microsome stability, human; assay type: in vitro ADME; settings: 37°C, after 1 hr
[5] = Hepatic microsome stability, mouse; assay type: in vitro ADME; settings: 37°C, after 1 hr
[6] = Mouse pharmacokinetics IV and IP; settings: male CD-1 mice, IV 2 mg/kg single dose

In the case of `O=C(Nc1ccc(S(=O)(=O)N2CCNCC2)cc1)c1ccc([N+](=O)[O-])o1` [Compound 8], the loss of activity (CHOP; CHOP activation relative to hit 3) is reported as roughly 14 fold.

For `O=C(Nc1ccc(S(=O)(=O)N2CCC(O)CC2)cc1)c1ccc([N+](=O)[O-])o1` [Compound 9], the “UPR CHOP AC50 ± SEM” value (CHOP) was “on par with activity observed with hit 3”.

In the case of `O=C(Nc1ccc(S(=O)(=O)N2CCC(Cl)CC2)cc1)c1ccc([N+](=O)[O-])o1` [Compound 12], the “effect on Chop-null MEF cells” value [1] is reported as “unaffected”, the EC50 (HN30) is reported as 9 ± 1.1 µM and the “sensitivity, dose–response proliferation assay” value (A253) is reported as “more resistant”. For the same molecule, the “sensitivity, dose–response proliferation assay” value (H460/T800) was “more resistant”, the “sensitivity, dose–response proliferation assay” value (HN6) was “more resistant” and the growth inhibition potency [2] was “low micromolar potency”. For the same molecule, the “compound remaining with dithiothreitol (DTT)” value ([3]; 5-fold excess DTT) was 100%, the “compound remaining with glutathione (GSH)” value ([3]; 5-fold excess GSH) was 100% and the “Aqueous stability in PBS and pION buffer” value (Aqueous solubility) was 8.7–9.7 μM. The “PAMPA permeability in words” value (PAMPA permeability) was “good permeability”, the “Hepatic Microsome Stability percent remaining” value [4] was “almost completely metabolized” and the “Hepatic Microsome Stability percent remaining” value [5] was “almost completely metabolized”. The “IV dose cleared from circulation within” value [6] was no more than 30 min.

In the case of `O=C(Nc1ccc(S(=O)(=O)N2CCOCC2)cc1)c1ccco1` [Compound 27], the “UPR CHOP AC50 ± SEM” value (CHOP) is reported as “loss of activity”.

In the case of `Cc1ccc(C(=O)Nc2ccc(S(=O)(=O)N3CCOCC3)cc2)o1` [Compound 28], the “UPR CHOP AC50 ± SEM” value (CHOP) is reported as “loss of activity”.

For `O=C(Nc1ccc(S(=O)(=O)N2CCOCC2)cc1)c1ccc(Br)o1` [Compound 29], the “UPR CHOP AC50 ± SEM” value (CHOP) was “loss of activity”.

In the case of `CC1(C)CCN(S(=O)(=O)c2ccc(NC(=O)c3ccc(C(F)(F)F)o3)cc2)CC1` [Compound 30], the “UPR CHOP AC50 ± SEM” value (CHOP) is reported as “loss of activity”.

From PMC4266338 (ACS Medicinal Chemistry Letters, 2014)
